Data on 16 compounds can be found in patent US8410152B2 (Max-Planck-Gesellschaft zur Forderung der Wissenschaften e. …, priority 2006, dated 2013).

The test system of one data set is N2a/K18ΔK280 cells. Kind of data set: Tau aggregation and inhibition assay in cells (ThS staining). In kind it is cell-based. The following applies: for Inhibition in cells (result in words: cytotoxicity): compound 10 μM; for inhibition at 10 µM: 120 h, read-out: Inhibition in cells. On the procedure: Selection of an N2a, Tet-On, G418-resistant cell line: N2a cells were cotransfected with both the pUHD172-1 plasmid (encoding the rtTA, obtained from H. Bujard, Heidelberg) and pEU-1 plasmid (encoding G418 resistance, a derivative of pRc/CMV, Invitrogen) (ratio 20:1; 1 μg/well of 6-well plates) using the DOTAP transfection reagent (Roche, Basel, CH). The cells were cultured in Eagle's Minimum Essential Medium (MEM) supplemented with 10% defined fetal bovine serum and subjected to G418 (600 μg/ml) and selection. The cells were fed with fresh media every 4 days for 3-4 weeks when single colonies appeared. Clones were tested for the induction level by transient transfection of pUHG 16-3 plasmid and the induction of β-galactosidase was measured.
Generation of inducible Tet-On cell lines: The DNA fragments encoding the appropriate tau constructs (K18WT, K18ΔK280, K18/ΔK280/PP) were inserted into the bidirectional vector pBI-5 between ClaI and SalI restriction sites (pBI-5 is an unpublished derivative of pBI-2, Baron et al., 1995). The pBI-5/K18-derived plasmids with pX343 (plasmid encoding the hygromycin resistance) were used for cotransfection of N2a/Tet-On, G418-resistant cells with the aid of DOTAP (20:1 plasmid ratio; 1 μg/well of 6-well plates). The cells were seeded at 4×10^5 cells per well. On the following day cells were transferred to 100-mm dishes and selected with 100 μg/ml of hygromycin and 600 μg/ml of G418. Clonal cell lines were screened for the inducible expression of K18 derivatives by measuring luciferase activity with the luciferase assay and immunofluorescence for tau protein with the polyclonal pan-tau antibody K9JA.
Induction of K18-derivatives in Tet-On N2a cells: The inducible N2a/K18-derivatives cells were cultured in MEM medium supplemented with 10% fetal calf serum, 2 mM glutamine and 0.1% nonessential amino acids. The expression of K18 constructs was induced by adding 1 μg doxycyclin (Dox) per 1 ml medium. The induction was continued for 7-11 days, the medium was changed 3 times (always complemented with doxycyclin). For tau solubility assays the cells were collected by pelleting during centrifugation at 1000×g for 5 min. The levels and solubility of tau K18/ΔK280 were determined following Greenberg and Davies (1990). The cells were homogenized (DIAX900, Heidolph, Schwabach, Germany) in 10 vol (w/v) of buffer consisting of 10 mM Tris-HCl (pH 7.4), 0.8 M NaCl, 1 mM EGTA, and 10% sucrose. The homogenate was spun for 20 min at 20000×g, and the supernatant was retained. The pellet was re-homogenized in 5 vol of homogenization buffer and re-centrifuged. Both supernatants were combined, brought to 1% N-laurylsarkosinate (w/v) and incubated for 1 hr at room temperature while shaking, followed by centrifugation at 100 000×g for 1 hr. The sarkosyl-insoluble pellets were resuspended in 50 mM Tris-HCl (pH 7.4), 0.5 ml per 1 g of starting material. The supernatant and sarkosyl-insoluble pellet samples were analyzed by Western blotting. The amount of material loaded for supernatant and sarkosyl-insoluble pellet represented about 0.5% and 15% of the total material present in the supernatant and pellet respectively (the ratio between supernatant and sarkosyl insoluble pellet was always 1:30). For quantification of tau levels in each fraction, the Western blots were probed with pan-tau antibody K9JA and analyzed by densitometry (LAS 3000 and AIDA software, Raytest, Straubenhardt, Germany).
Quantitation of tau aggregation in cells by Thioflavin S (ThS) staining: Tet-On inducible undifferentiated N2a cells were treated with 1 μg/ml doxycyclin for 5, 7 or 9 days in a culture dish. After that the cells were trypsinized and transferred to coverslips and incubated overnight. The cells on the coverslips were fixed with 4% paraformaldehyde in PBS for 15 min, then permeabilized with 80% MeOH for 6 min at −20° C., and incubated with 0.1% Thioflavin S for 5 min and washed three times in ethanol (50%). […]

A further data set concerns the target tau construct K19 (Homo sapiens, UniProt P10636). Briefly: Thioflavine S (ThS) assay for aggregation of tau. In kind it is biochemical. As for the experimental part: Thioflavine S (ThS) Assay for aggregation of tau: 10 μM of the tau construct K19 were incubated with compounds in a concentration range from 1 nM up to 200 μM in the presence of 2.5 μM heparin in 50 mM NH4Ac buffer over night at 37° C. After addition of 20 μM ThS the signal was measured at 521 nm (emission) at an excitation wavelength of 440 nm. The results of this assay are presented in the IC50 column and DC50 column of Table 1 below.

For another data set, the system named is uninduced N2A cells. It is filed as cell-based. The conditions noted are these: cell death as percent of LDH released into medium vs total LDH, compound 10 μM. The method, boiled down: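 Compound at 10 μM final was added to uninduced N2A cells. LDH activity was read at 492 nm. Cell death was expressed as percent LDH released into medium relative to total LDH after full cell lysis.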

[1] abbreviates: 10 μM tau construct K19, 2.5 μM heparin, ThS fluorescence.
The mark [2] stands for this setting: N2a/K18ΔK280 cells, compound 10 μM with doxycyclin, 5 days, ThS-positive cells scored.
Setting [3] is: 10 μM tau construct K19, 2.5 μM heparin, ThS fluorescence, read-out: DC50.
Where [4] appears, read: 10 μM tau construct K19, 2.5 μM heparin, over night at 37° C., ThS fluorescence, read-out: ID50 (the source's name).

Where two headings read alike, the source gives them in different places.

Chain of tau construct K19 (P10636 with tags, fused parts or gaps isoform P10636-2 limits assumed): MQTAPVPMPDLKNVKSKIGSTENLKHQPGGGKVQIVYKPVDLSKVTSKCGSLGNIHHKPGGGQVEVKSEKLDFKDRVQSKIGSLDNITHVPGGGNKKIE

`O=C(NNc1nc(-c2ccc(-c3ccccc3)cc2)cs1)c1cc2ccccc2[nH]1` [Comp. 58, N′-[4-(1,1′-biphenyl-4-yl)-1,3-thiazol-2-yl]-1H-indole-2-carbohydrazide]: the “Inhibition in cells (result in words: cytotoxicity)” value (shortened to “Inhibition in cells”) in the data set with N2a/K18ΔK280 cells (N2a/K18ΔK280 cells, 5 days) was “Cytotoxic at 5 d”. Also, at tau construct K19, the IC50 amounted to 98.9 µM. In addition, on tau construct K19 (setting [1]), the DC50 is > 200 µM. Further, the LDH with uninduced N2A cells is on record as 54.5%.

One may read the inhibition as how much of the control response was suppressed. In the case of `Cc1sc(NNC(=O)c2ccc(-c3ccccc3)cc2)nc1-c1ccc([N+](=O)[O-])cc1` [Comp. 61, N′-[5-methyl-4-(4-nitrophenyl)-1,3-thiazol-2-yl]-1,1′-biphenyl-4-carbohydrazide], the inhibition at 10 µM with N2a/K18ΔK280 cells (setting [2]) was found to be 62.6%. Further, the DC50 at tau construct K19 (setting [3]) was 13.6 µM. The IC50 at tau construct K19 (setting [4]) came to 9.8 µM. Moreover, in the data set with uninduced N2A cells, the LDH amounted to 16.6%.

As for `O=C(NNc1nc(-c2ccc([N+](=O)[O-])cc2)cs1)c1ccc2c(c1)OCO2` [Comp. 13, N′-[4-(4-nitrophenyl)-1,3-thiazol-2-yl]-1,3-benzodioxole-5-carbohydrazide], in the data set on N2a/K18ΔK280 cells, the inhibition at 10 µM came out at 66.1%. At tau construct K19 (setting [3]), the DC50 was 0.7 µM. For the same compound, the IC50 on tau construct K19 (setting [4]) was determined as 3.9 µM. Further, the LDH with uninduced N2A cells was found to be 9.3%.

Take `COc1ccc(-c2csc(NNC(=O)N3CCCCC3)n2)cc1` [Comp. 49, N′-[4-(4-methoxyphenyl)-1,3-thiazol-2-yl]piperidine-1-carbohydrazide]: the “Inhibition in cells” value with N2a/K18ΔK280 cells (N2a/K18ΔK280 cells, 5 days) was “Cytotoxic at 5 d”. For the same compound, on tau construct K19 (setting [3]), the DC50 is > 200 µM. Moreover, the IC50 at tau construct K19 (setting [4]) was > 200 µM. Moreover, the LDH in the data set with uninduced N2A cells was −3.9%.

In the case of `N#Cc1ccc(-c2csc(NNC(=O)c3cccc(F)c3)n2)cc1` [Comp. 67, N′-[4-(4-cyanophenyl)-1,3-thiazol-2-yl]-3-fluorobenzohydrazide], the “Inhibition in cells” value in the data set on N2a/K18ΔK280 cells (N2a/K18ΔK280 cells, 5 days) is on record as “Cytotoxic at 5 d”. Further, the DC50 on tau construct K19 (setting [3]) came to 28.7 µM. Besides, the IC50 on tau construct K19 (setting [4]) is 19.7 µM. The LDH with uninduced N2A cells is given as 19.8%.

Turning to `COc1cc(-c2csc(NNC(=O)c3cc4ccccc4[nH]3)n2)cc(OC)c1O` [Comp. 53, N′-[4-(4-hydroxy-3,5-dimethoxyphenyl)-1,3-thiazol-2-yl]-1H-indole-2-carbohydrazide], the inhibition at 10 µM in the data set with N2a/K18ΔK280 cells worked out at 49.9%. On tau construct K19, this compound displayed an IC50 of 171 µM. In addition, at tau construct K19 (setting [1]), the DC50 is > 200 µM. For the same compound, in the data set on uninduced N2A cells, the LDH is on record as −7.3%.

Turning to `O=C(NNc1nc(-c2ccc(Cl)cc2)cs1)C1CCCCC1` [Comp. 68, N′-[4-(4-chlorophenyl)-1,3-thiazol-2-yl]cyclohexanecarbohydrazide], in the data set on N2a/K18ΔK280 cells (setting [2]), the inhibition at 10 µM came out at 46.4%. Further, the DC50 on tau construct K19 (setting [3]) was 162 µM. In addition, the IC50 at tau construct K19 (setting [4]) was 69.1 µM. The LDH in the data set on uninduced N2A cells was −2.8%.

Consider `O=C(NNc1nc2c(s1)Cc1ccccc1-2)c1ccc(C(F)(F)F)cc1` [Comp. 66, N′-8H-indeno[1,2-d][1,3]thiazol-2-yl-4-(trifluoromethyl)benzohydrazide], for which, in the data set on N2a/K18ΔK280 cells (setting [2]), the inhibition at 10 µM was determined as 53.9%. Moreover, the DC50 at tau construct K19 (setting [3]) was 2.7 µM. Besides, the IC50 on tau construct K19 (setting [4]) worked out at 4.1 µM. The LDH in the data set on uninduced N2A cells was −4.6%.

Take `COc1cc(-c2csc(NNC(=O)c3ccc(C(F)(F)F)cc3)n2)cc(OC)c1O` [Comp. 51, N′-[4-(4-hydroxy-3,5-dimethoxyphenyl)-1,3-thiazol-2-yl]-4-(trifluoromethyl)benzohydrazide]: the inhibition at 10 µM with N2a/K18ΔK280 cells (setting [2]) amounted to 42.6%. Besides, on tau construct K19 (setting [3]), the DC50 was > 200 µM. In addition, the IC50 at tau construct K19 (setting [4]) amounted to 189 µM. Further, the LDH in the data set on uninduced N2A cells was −10.4%.

For the compound `O=C(NNc1nc2c(s1)Cc1ccccc1-2)c1cc2ccccc2[nH]1` [Comp. 52, N′-8H-indeno[1,2-d][1,3]thiazol-2-yl-1H-indole-2-carbohydrazide], the inhibition at 10 µM in the data set on N2a/K18ΔK280 cells was determined as 53.2%. At tau construct K19, this compound came in with an IC50 of 49.4 µM. This compound also showed a DC50 on tau construct K19 (setting [1]) of 89.1 µM. Besides, the LDH in the data set on uninduced N2A cells was −9.6%.

With `O=C(NNc1nc(-c2ccc(N3CCCC3)cc2)cs1)c1ccc(-c2ccccc2)cc1` [Comp. 9, N′-[4-(4-pyrrolidin-1-ylphenyl)-1,3-thiazol-2-yl]-1,1′-biphenyl-4-carbohydrazide], the inhibition at 10 µM with N2a/K18ΔK280 cells (setting [2]) stood at 60.5%. Besides, the DC50 at tau construct K19 (setting [3]) was determined as 1 µM. At tau construct K19 (setting [4]), the IC50 came to 1.9 µM. In addition, in the data set with uninduced N2A cells, the LDH amounted to 6.2%.

Turning to `O=C(NNc1nc(-c2ccc(N3CCCC3)cc2)cs1)c1cccnc1` [Comp. 10, N′-[4-(4-pyrrolidin-1-ylphenyl)-1,3-thiazol-2-yl]nicotinohydrazide], the inhibition at 10 µM in the data set with N2a/K18ΔK280 cells (setting [2]) came to 62.5%. Also, on tau construct K19 (setting [3]), the DC50 was found to be 1.4 µM. Moreover, at tau construct K19 (setting [4]), the IC50 came to 2 µM. Further, in the data set on uninduced N2A cells, the LDH was determined as 12.5%.

For the compound `O=C(NNc1nc(-c2ccc3ccccc3c2)cs1)c1cc2ccccc2[nH]1` [Comp. 59, N′-[4-(2-naphthyl)-1,3-thiazol-2-yl]-1H-indole-2-carbohydrazide], the “Inhibition in cells” value with N2a/K18ΔK280 cells (N2a/K18ΔK280 cells, 5 days) was “Cytotoxic at 5 d”. At tau construct K19, this compound showed an IC50 of 130 µM. The compound further returned a DC50 on tau construct K19 (setting [1]) of 138 µM. The LDH in the data set on uninduced N2A cells was found to be 1.9%.

Consider `Cc1nc(NNC(=O)c2ccc(F)cc2)sc1-c1ccc(Br)cc1` [Comp. 63, N′-[5-(4-bromophenyl)-4-methyl-1,3-thiazol-2-yl]-4-fluorobenzohydrazide], for which the inhibition at 10 µM in the data set with N2a/K18ΔK280 cells is 50%. At tau construct K19 (setting [3]), the DC50 came to 15.9 µM. For the same compound, the IC50 at tau construct K19 (setting [4]) worked out at 13.6 µM. Besides, the LDH with uninduced N2A cells was determined as 1.2%.

Take `O=C(NNc1nc(-c2ccc(Cl)cc2)cs1)c1cc2ccccc2[nH]1` [Comp. 55, N′-[4-(4-chlorophenyl)-1,3-thiazol-2-yl]-1H-indole-2-carbohydrazide]: the inhibition at 10 µM in the data set with N2a/K18ΔK280 cells is 54%. The IC50 at tau construct K19 amounted to 88.9 µM. The DC50 on tau construct K19 (setting [1]) came to 105 µM. Also, the LDH in the data set on uninduced N2A cells was −1.1%.

Regarding `O=C(NNc1nc(C2C3CC4CC(C3)CC2C4)cs1)c1cc2ccccc2[nH]1` (stereo not shown) [Comp. 54, N′-[4-(2-adamantyl)-1,3-thiazol-2-yl]-1H-indole-2-carbohydrazide], in the data set with N2a/K18ΔK280 cells, the inhibition at 10 µM was 56.6%. Further, the IC50 against tau construct K19 is > 200 µM. The DC50 at tau construct K19 (setting [1]) was > 200 µM. Besides, the LDH in the data set with uninduced N2A cells was −2.1%.
